Assay results taken from US20100069326A1, “Combination Therapies to Treat Cardio- and Cerebro-Vascular Disorders” (priority 2008, published 2010).
Where two headings read alike, the source gives them in different places.

Assays:
[1] = system: Male Wistar rats with unilateral MCAO (cerebral ischemia); experiment: Rat stroke model (permanent MCA occlusion), infarct volume assessment; assay type: in vivo; conditions: triflusal 30 mg/kg alone, 3 days after unilateral MCAO; for Infarct volume: three days, mean±SEM
Experimental: Male Wistar rats (265-360 g) were randomly divided into four treatment groups (n=5-9 for each group). Prior to and following surgery rats were housed in single cages (12/12 h light/dark cycle) and were fed at libitum. Prior to surgery, all rats were anaesthetized with a single dose of sodium pentobarbital (60 mg/kg ip) and placed in a David Kopf stereotaxic apparatus. Rectal temperatures were monitored and maintained constant at 37° C. by a heating pad while the rats were under anesthesia. The right MCA was exposed. […] Removal of a portion of the bone and exposure and ligation of the MCA was done with the aid of an operating stereomicroscope. Immediately following surgery, rats received one of the following treatments: 30 mg/kg triflusal or 30 mg/kg triflusal and 200 mg/kg dipyridamole or 10 mg/kg triflusal and 200 mg/kg dipyridamole or vehicle only for next three days. Three days after surgery, all animals were euthanized via pentobarbital overdose and perfused transaortically first with saline which was immediately followed by a low perfusion for about 1 h with 2% solution of triphenyl-tetrazolium chloride (TTC) that is followed by 4% formaldehyde (pH 7.4). The brains were removed and coronal sections (1 mm) were cut for infarct measurement. Investigator was blind to the sample treatment. Serial brain sections were examined and the areas of infarcted tissue were measured (SigmaScan […].0, SPSS Inc., Chicago Ill., USA). In addition, the hemispheric areas of each tissue section were measured to account for any brain swelling that might have occurred following cerebral ischemia. The volume of the infarct was calculated in mm^3 by integrating the infarct sizes for each of the tissue sections that contained infarcted tissue. The 1 mm sections were photographed using a Nikon digital camera. Results are expressed as mean±SEM of each measure. The volumes of the infarcts for each of the groups were compared by Student's unpaired two-tailed t tests. Significance was set at p≦0.05. Correlations between parameters were tested by linear regression analysis

cAMP phosphodiesterase = conditions: compared with aspirin; cited from earlier work
[2] = system: rat middle cerebral artery occlusion (MCAO) model of stroke; conditions: cited from earlier work; for reducing infarct size (in words): dose of 30 mg/kg, triflusal versus aspirin

Row | Compound | Infarct volume [1] | Infarct volume ([1]; listed as triflusal) | Infarct reduction ([1]; vs vehicle) | potency as inhibitor of cAMP phosphodiesterase relative to aspirin (cAMP phosphodiesterase) | reducing infarct size (in words) [2] | infarct reduction in the MCAO model ([2]; triflusal 10 mg/kg/day, not significant neuroprotection) | infarct reduction in the MCAO model ([2]; triflusal 30 mg/kg/day, significant neuroprotection)
1 | CC(=O)Oc1cc(C(F)(F)F)ccc1C(=O)O [Triflusal, 2-acetoxy-4-trifluoromethylbenzoic acid] | 73.59 ± 7.0 mm^3 | 73.59±7.0 mm^3 | 30.72 ± 6.6% | five times more potent | equally effective | 12.56% | 43.95%
2 | CC(=O)Oc1ccccc1C(=O)O [aspirin] | – | – | – | – | equally effective | – | –
